Consider 24 compounds from EP0028305A1, “Diaryl compounds and pharmaceutical formulations containing them” (THE WELLCOME FOUNDATION LIMITED, priority 1979, dated 1981).

Each structure is given as a SMILES string. Where a name gives a salt, the structure may show the parent alone.

The subject of the first assay is virus. In words: plaque reduction (PR) test. Type of assay: cell-based. The note with it: plaque reduction assay, compound incorporated in nutrient agarose overlay; read-out: PR(ED50/µM). As for the experimental part:
(§1) Activity may be detected by the plaque inhibition (PI) test and measured by the plaque reduction (PR) test. Both assays involve the formation of a monolayer cell culture in a petri dish followed by infection with a virus suspension, and then overlaying the culture with nutrient agarose in the form of a gel. This gel ensures that there is no spread of virus throughout the culture and thus areas of localised cell destruction or plaques are formed.
Detectable activity is measured with the plaque reduction assay. A range of concentrations of compounds of known molarity are incorporated in the nutrient agarose overlay. Plaque suppression is proportional to compound concentration. Plaque numbers are expressed as percentages of a control, and a dose response curve may be drawn. From this curve 50% of the effective dose (ED50) may be estimated.
(In a plaque reduction assay, fewer plaques than in the control indicate reduced infectivity or spread.)
`O=C(O)c1ccc(OCc2ccc(Cl)cc2)cc1` [Example 9, 4-Chlorobenzyl 4-carboxyphenyl ether]: the EC50 stood at 1.6 µM. Regarding `Clc1cc(COc2ccccc2)cc(Cl)c1Cl` [Example 10, 3,4,5-Trichlorobenzyl phenyl ether], the EC50 worked out at 1.6 µM. In the case of `NC(=S)c1ccc(OCc2ccc(Cl)cc2)cc1` [Example 21, 4-(4-chlorobenzyloxy)benzenecarbothioamide], the EC50 was determined as 0.6 µM. Turning to `O=[N+]([O-])c1ccccc1OCc1ccc(Cl)cc1` [Example 2, 4-chlorobenzyl 2-nitrophenyl ether], the EC50 was 1.2 µM. For the compound `Clc1ccc(CCCc2ccccc2)cc1Cl` [Example 12, 1-(3,4-dichlorophenyl)-3-phenylpropane], the EC50 was 0.068 µM. Consider `OC(C=Cc1ccc(Cl)c(Cl)c1)c1ccccc1` (stereo not drawn) [Example 17, 3-(3,4-dichlorophenyl)-l-phenylprop-2-en-l-ol], for which the EC50 stood at 1.2 µM. In the case of `OC(C=Cc1ccc(Cl)cc1)c1ccc(Cl)cc1` (stereo not drawn) [Example 18, 1,3-bis-(4-chlorophenyl)prop-2-en-1-ol], the EC50 was 1.35 µM. Take `CC(C)(C)c1cccc(OCc2ccc(Cl)cc2)c1` [Example 4, 4-Chlorobenzyl 3-t-butylphenyl ether]: the EC50 was 1.9 µM. In the case of `FC(F)(F)c1cccc(OCc2ccccc2)c1` [Example 6, Benzyl 3-trifluoromethylphenyl ether], the EC50 was determined as 0.66 µM.

For `CCc1ccc(OCc2ccc(Cl)cc2)cc1` [Example 3, 4-Chlorobenzyl 4-ethylphenyl ether], the EC50 was 0.72 µM. On the same count and under the same terms, the same measure for `Clc1ccc(COc2ccc(Cl)c(Cl)c2)cc1` [Example 11, 4-Chlorobenzyl 3,4-dichlorophenyl ether]: 0.33 µM; for `N#Cc1ccc(OCc2ccc(Cl)cc2)cc1` [Example 7, 4-Chlorobenzyl 4-cyanophenyl ether]: 0.22 µM; for `OC(CCc1ccc(Cl)c(Cl)c1)c1ccccc1` (stereo not drawn) [Example 14, 3-(3,4-dichlorophenyl)-1-phenylpropan-1-ol]: 0.66 µM. Still for that read-out and setting: in the case of `OC(COc1ccc(Cl)cc1)c1ccc(Cl)cc1` (stereo not drawn) [Example 19, 2-(4-chlorophenoxy)-1-(4-chlorophenyl)ethanol] it was 1.5 µM. `Clc1ccc(CNc2ccccc2)cc1Cl` [Example 1, N-3,4-dichlorobenzylaniline hydrochloride]: the EC50 was 0.17 µM. As for `Clc1ccc(COc2ccc(Cl)c(Cl)c2)cc1Cl` [Example 5, 3,4-Dichlorobenzyl 3,4-dichlorophenyl ether], the EC50 came out at 0.47 µM. Regarding `Cc1ccc(COc2ccc(C)cc2)cc1` [Example 8, 4-Methylbenzyl 4-methylphenyl ether], the EC50 turned out to be 0.56 µM. Regarding `OC(CNc1ccc(Cl)cc1)c1ccc(Cl)cc1` (stereo not drawn) [Example 24, 2-(4-chloroanilino)-1-(4-chlorophenyl)ethanol], the EC50 came to 3 µM. As to `O=C(CCc1ccc(Cl)c(Cl)c1)c1ccccc1` [Example 15, 3-(3,4-dichlorophenyl)-1-phenylpropan-1-one], the EC50 is 0.235 µM.

Take `OC(CCc1ccc(Cl)cc1)c1ccc(Cl)cc1` (stereo not drawn) [Example 13, 1,3-bis-(4-chlorophenyl)propan-1-ol]: the EC50 is 1.3 µM. Same read-out and setting: in the case of `OC(COc1ccc(Cl)c(Cl)c1)c1ccccc1` (stereo not drawn) [Example 20, 2-(3,4-dichloro^phenoxy)-l-phenylethanol] it was 2.5 µM; in that of `OCc1cccc(OCc2ccc(Cl)cc2)c1` [Example 23, 4-chlorobenzyl 3-hydroxymethylphenyl ether], 0.53 µM.

`Clc1ccc(CC=Cc2ccccc2)cc1Cl` [Example 16, 3-(3,4-dichlorophenyl)-1-phenylpropene]: the EC50 is 0.19 µM. `NC(=O)c1ccc(OCc2ccc(Cl)cc2)cc1` [Example 22, 4-(4-chlorobenzyloxy)benzamide]: the EC50 was 0.43 µM.

Staying with this assay, now noted: second value printed in parentheses in the same cell, meaning not explained; read-out: PR(ED50/µM).
In the case of `CC(C)(C)c1cccc(OCc2ccc(Cl)cc2)c1` [Example 4, 4-Chlorobenzyl 3-t-butylphenyl ether], the EC50 came out at 5 µM.

With `FC(F)(F)c1cccc(OCc2ccccc2)c1` [Example 6, Benzyl 3-trifluoromethylphenyl ether], the EC50 amounted to 1.7 µM.

The test system of a further assay is virus. Description: intranasal administration, simulation in vitro (plaque formation, compound applied to petri dish lid). Type of assay: cell-based. The note with it: lug dissolved in ethanol, applied to lids of petri dishes, ethanol evaporated; compound penetrated the agarose layer.
From the text: as §1
In the plaque inhibition test a filter paper disc which holds 0.01 ml when impregnated with a solution of a compound is placed on top of the agarose gel. The compound may then diffuse throughout the gel so that its greatest concentration will be around the disc and its lowest concentration towards the periphery of the petri dish. The efficacy of the compound may be detected by observing the zone of inhibition of plaque formation.
Petri dishes were prepared, as for the plaque inhibition test and the confluer sheet of cells was covered with a layer of agarose gel. The compound, of Example 12 (lug) was dissolved in ethanol, and applied to the lids of the petri dishes. When the ethanol had evaporated, leaving the compound spread over the inside of the lids, these were replaced on the petri dishes.
In the case of `Clc1ccc(CCCc2ccccc2)cc1Cl` [Example 12, 1-(3,4-dichlorophenyl)-3-phenylpropane], the “inhibition of plaque formation” value is listed as “total inhibition”.
